From patent publication US12070467B2, “Method of treating ciliated tissue using CSA micelles” (Brigham Young University, priority 2018, dated 2024)
Values joined by “and” are separate entries in the source; they are usually repeats but may differ in a detail not shown here. Equal entries are not always repeated. Where two headings read alike, the source gives them in different places.

Legend:
[1] = test system: P. aeruginosa (ATCC 47085); assay: Kinetics of bactericidal activity (FIG. 4); assay type: cell-based, Pseudomonas aeruginosa; details: detection limit two logs
Procedure: (§1) Cultures were incubated at 37° C. At 5, 15, 30, 60, and 120 min, aliquots were removed from each well and added to neutralizing buffer to ensure that no further antibacterial activity occurred. These samples were then serially diluted and plated on TSA or SDA. Cultures were incubated at 37° C. for 24 h or 48 h, and colonies were counted and recorded.
(§2) Detection limit was two logs.

[2] = test system: cilia on porcine trachea explants; details: for Number of explants (out of 12) clearing beads, <10 min / Number of explants (out of 12) clearing beads, <20 min / Number of explants (out of 12) clearing beads, <30 min / Number of explants (out of 12), No Clearance: CSA-131 100 μg/mL for 1 h; for Number of explants (out of 12) clearing beads, <20 min: between 10 and 20 min; for Number of explants (out of 12) clearing beads, <30 min: between 20 and 30 min; for Number of explants (out of 12), No Clearance: no clearance (>30 min)
Procedure: In this example, the effect of CSA compositions with and without micelles was tested using ciliated porcine lung tissue. […] An ex vivo assay was used to evaluate pluronic-containing formulations, and in this assay the beating of cilia can be actively observed. […] This method involves sectioning porcine trachea, supported in a nutrient medium, placing small beads on one side of the explant, and measuring the transfer (clearance) of the beads to the other side of the explants (FIG. 5). […] Twelve explants were used for each test condition, and the results are reported as the number clearing beads in a given amount of time.
Normal healthy porcine trachea and lung tissue was excised very fresh from slaughter. After aseptic collection, whole tissues were transported in a 1:1 mixture of Dulbecco's modified Eagle's medium (DMEM) and RPMI, which was pre-warmed and supplemented with penicillin-streptomycin-glutamine 100× (Hyclone, Logan, UT, USA). Explants were washed by tissue immersion three to four times in warm, fresh DMEM/RPMI media. Explants were maintained by continuous immersion in DMEM/RPMI media in a 5% CO2-95% air mixture in a humidified incubator at 37° C.
Tracheas were washed and extra exterior tissues to the cartilage were removed. Tracheas were opened and cut into approximately 2×1 cm explants consisting of the respiratory mucosa and underlying cartilage. […] Explants were then placed on small circular filter papers, which were placed on top of 1% agarose gel plugs bathed in medium in 6-well plates. […] Five microliters of a suspension of 1 μm diameter polystyrene microsphere beads (Polysciences, Inc., Warrington, PA, USA) were pipetted on one edge of epithelial surfaces and evaluated for their complete clearance (movement) across the surface with categorization of clearance in under 10 min, between 10 and 20 min, between 20 and 30 min, and no clearance (>30 min). Independent replicates were completed for each time point. Outcomes were then counted and a percentage of clearance was determined.

[3] = test system: bacterial and fungal biofilms: S. aureus (ATCC 25923), P. aeruginosa (ATCC 47085), C. albicans (ATCC 90028), C. auris (CDC 384); assay: Antibiofilm activity by plating organisms freed from biofilms and counting colonies (FIG. 2); assay type: cell-based; details: 100 μg/mL, 48 h biofilms
Procedure: Consequently, this concentration was used as a target for antibacterial and antifungal activity, as well as in tolerability studies with trachea and lung explants. A key preliminary question in these studies is whether the pluronic alone has any effect on bacteria and fungi. […] In these assays, biofilms were generated over 48 h, and after treatment, bacterial and fungal counts were determined by plating organisms freed from biofilms and counting colonies. Detection limits for the experiments were two logs. […] Antibiofilm results were determined through the plating of microorganisms freed from biofilms, culturing, and plate counting. In FIG. 2, white bars show remaining S. aureus (ATCC 25923); black bars show remaining P. aeruginosa (ATCC 47085); gray bars show remaining C. albicans (ATCC 90028); hashed bars show remaining C. auris (CDC 384). The Detection limit was 2 logs. * indicates p<0.05 relative to controls and to pluronic alone.

[4] = test system: P. aeruginosa ATCC 47085 biofilm; assay: Minimum biofilm eradication concentration (MBEC); assay type: cell-based, Pseudomonas aeruginosa; details: 48 h biofilm, 24 h treatment
Procedure: (§3) Staphylococcus aureus (ATCC 25923) and Pseudomonas aeruginosa (ATCC 47085 (PA01)) were grown from fresh colonies in trypticase soy broth (TSB) and incubated overnight at 37° C. Fungal cultures, Candida albicans (ATCC 90028) and Candida auris (CDC 0382, 0384, 0387, and 0389), were grown overnight in sabouraud dextrose broth (SDB) or Roswell Park Memorial Institute medium (RPMI). Cultures of bacteria and fungi were centrifuged, and pellets were washed three times with phosphate buffered saline (PBS) and further resuspended in fresh PBS. Bacterial cultures were diluted in TSB and fungal cultures were diluted in SDB or RPMI to […] or 10^6 CFU/mL (optical density (OD) readings at 600 nm).
(§4) Inocula (10^6 CFU/mL) of bacterial and fungal strains (P. aeruginosa, S. aureus, C. albicans, and C. auris) were incubated at 37° C. for 48 h in 1 mL of TSB or SDB in 96-well plates. Following incubation, the growth medium was gently removed, and wells were washed three times with sterile PBS. […] Wells, including well edges, were scraped thoroughly with a plastic spatula. Well contents were removed in 1 mL of neutralizing broth (Dey-Engley, Sigma-Aldrich) and placed in a sonicating water bath (Fisher Scientific FS60, 42 kHz, 100 W, Pittsburgh, PA, USA) to disrupt biofilms. […] After 24 h or 48 h of incubation at 37° C., colonies were counted and MBECs were determined. […]

[5] = test system: S. aureus ATCC 25923 biofilm; assay: Minimum biofilm eradication concentration (MBEC); assay type: cell-based, Staphylococcus aureus; details: 48 h biofilm, 24 h treatment
Procedure: as §3, §4

C. auris CDC 382 biofilm = assay: Minimum biofilm eradication concentration (MBEC); assay type: cell-based, Candida auris; details: 48 h biofilm, 24 h treatment
Procedure: as §3
(§5) Inocula (10^6 CFU/mL) of bacterial and fungal strains (P. aeruginosa, S. aureus, C. albicans, and C. auris) were incubated at 37° C. for 48 h in 1 mL of TSB or SDB in 96-well plates. Following incubation, the growth medium was gently removed, and wells were washed three times with sterile PBS. […] Wells, including well edges, were scraped thoroughly with a plastic spatula. Well contents were removed in 1 mL of neutralizing broth (Dey-Engley, Sigma-Aldrich) and placed in a sonicating water bath (Fisher Scientific FS60, 42 kHz, 100 W, Pittsburgh, PA, USA) to disrupt biofilms. After 15 min, the resulting samples were serially diluted, and bacterial samples were plated on TSA while fungal samples were plated on SDA. After 24 h or 48 h of incubation at 37° C., colonies were counted and MBECs were determined. The minimum biofilm eradication concentration (MBEC) was defined as the lowest concentration of antibiotic that prevented bacterial regrowth.

C. auris CDC 384 biofilm = assay: Minimum biofilm eradication concentration (MBEC); assay type: cell-based, Candida auris; details: 48 h biofilm, 24 h treatment
Procedure: as §3, §5

C. auris CDC 389 biofilm = assay: Minimum biofilm eradication concentration (MBEC); assay type: cell-based, Candida auris; details: 48 h biofilm, 24 h treatment
Procedure: as §3, §5

C. auris CDC 387 biofilm = assay: Minimum biofilm eradication concentration (MBEC); assay type: cell-based, Candida auris; details: 48 h biofilm, 24 h treatment
Procedure: as §3, §5

[6] = test system: C. albicans ATCC 90028 biofilm; assay: Minimum biofilm eradication concentration (MBEC); assay type: cell-based, Candida albicans; details: 48 h biofilm, 24 h treatment
Procedure: as §3, §4

C. albicans = assay: Kinetics of fungicidal activity; assay type: cell-based, Candida albicans; details: CSA-131 100 μg/mL, pluronic 4%, data not shown
Procedure: as §1, §2

S. aureus ATCC 25923 = assay: Minimum inhibitory concentration (MIC), broth microdilution; assay type: cell-based, Staphylococcus aureus; details: 37° C., 18-20 h
Procedure: as §3
Minimum inhibitory concentrations (MICs) were measured using the broth microdilution protocol described by the Clinical and Laboratory Standards Institute. […] Aliquots (100 μL) of a prepared inoculum (10^6 CFU/mL for bacteria and […] CFU/mL for fungi) were added, and plates were incubated at 37° C. for 18-20 h. Bacterial or fungal growth was visually observed to determine the MICs. Negative and positive controls were included for each set of MIC measurements. For studies with pluronic, the surfactant was added at 4% and 5% to the initial inocula in each experiment. Measurements were performed in triplicate for all susceptibility tests.

[7] = CSA-131 100 μg/mL with pluronic (4%)

CCCCCCCCCCCCNCCC[C@@H](C)[C@H]1CC[C@H]2[C@@H]3[C@H](OCCCN)C[C@@H]4C[C@H](OCCCN)CC[C@]4(C)[C@H]3C[C@H](OCCCN)[C@]12C.Cl.Cl.Cl.Cl [CSA-131]
Time for inocula of just over 106 CFU/mL to be reduced to the detection limit ([1]; CSA-131 100 μg/mL alone): ≤ 15 min
Time for inocula of just over 106 CFU/mL to be reduced to the detection limit [1, 7]: ≤ 15 min
Number of explants (out of 12) clearing beads, <10 min ([2]; 0% pluronic): 3/12
Number of explants (out of 12) clearing beads, <20 min ([2]; 0% pluronic): 2/12
Number of explants (out of 12) clearing beads, <30 min ([2]; 0% pluronic): 1/12
Number of explants (out of 12), No Clearance ([2]; 0% pluronic): six of 12 and 6/12
Number of explants (out of 12) clearing beads, <10 min ([2]; 1% pluronic): 4/12
Number of explants (out of 12) clearing beads, <20 min ([2]; 1% pluronic): 2/12
Number of explants (out of 12) clearing beads, <30 min ([2]; 1% pluronic): 1/12
Number of explants (out of 12), No Clearance ([2]; 1% pluronic): 5/12
Number of explants (out of 12) clearing beads, <10 min ([2]; 2% pluronic): 7/12
Number of explants (out of 12) clearing beads, <20 min ([2]; 2% pluronic): 3/12
Number of explants (out of 12) clearing beads, <30 min ([2]; 2% pluronic): 2/12
Number of explants (out of 12) clearing beads, <10 min ([2]; 3% pluronic): 7/12
Number of explants (out of 12) clearing beads, <20 min ([2]; 3% pluronic): 4/12
Number of explants (out of 12) clearing beads, <30 min ([2]; 3% pluronic): 1/12
Number of explants (out of 12) clearing beads, <10 min ([2]; 4% pluronic): 8/12
Number of explants (out of 12) clearing beads, <20 min ([2]; 4% pluronic): 4/12
Number of explants (out of 12) clearing beads, <10 min ([2]; 5% pluronic): 10/12
Number of explants (out of 12) clearing beads, <20 min ([2]; 5% pluronic): 2/12
Influence on bead clearance [2, 7]: did not influence bead clearance
Bead clearance / ciliary activity compared with the control ([2]; CSA-131 100 μg/mL, 5% pluronic): the same as the control
Reduction of bacterial and fungal counts from biofilms ([3]; with pluronic): > 99.99%
Reduction of bacterial and fungal counts from biofilms ([3]; with pluronic, counts lowered to the detection limit (two logs)): > four
Reduction of bacterial and fungal counts from biofilms ([3]; without pluronic): > 99.99%
Reduction of bacterial and fungal counts from biofilms ([3]; without pluronic, counts lowered to the detection limit (two logs)): > four
MBEC [4]: 100 µg/mL
MBEC [5]: 100 µg/mL
MBEC (C. auris CDC 382 biofilm): 82 µg/mL
MBEC (C. auris CDC 384 biofilm): 48 µg/mL
MBEC (C. auris CDC 389 biofilm): 48 µg/mL
MBEC (C. auris CDC 387 biofilm): 64 µg/mL
MBEC [6]: 48 µg/mL
Difference in kinetic activity of the ceragenin alone and with pluronic (C. albicans): no significant differences
MIC (S. aureus ATCC 25923): 1 µg/mL
